Data from ChEMBL document CHEMBL5236672, “Discovery of indole-piperazine derivatives as selective histone deacetylase 6 inhibitors with neurite outgrowth-promoting activities and neuroprotective activities” (Bioorg Med Chem Lett, 2023).

Experiments:
PC-12 [1] = test: Cytotoxicity against rat PC-12 cells assessed as reduction in cell viability at 10 uM; type: toxicity, cell-based; conditions: pc-12, 10 µM
Homo sapiens = species: Homo sapiens; test: Selectivity index, ratio of IC50 for inhibition of HDAC1 (unknown origin) to IC50 for inhibition of HDAC6 (unknown origin)
Histone deacetylase 1 = Histone deacetylase 1 (Homo sapiens, UniProt Q13547); test: Inhibition of HDAC1 (unknown origin) using fluorogenic peptide RHKKAc-AMC as substrate by fluorescence-based assay
Chain of Histone deacetylase 1 (Q13547 whole entry): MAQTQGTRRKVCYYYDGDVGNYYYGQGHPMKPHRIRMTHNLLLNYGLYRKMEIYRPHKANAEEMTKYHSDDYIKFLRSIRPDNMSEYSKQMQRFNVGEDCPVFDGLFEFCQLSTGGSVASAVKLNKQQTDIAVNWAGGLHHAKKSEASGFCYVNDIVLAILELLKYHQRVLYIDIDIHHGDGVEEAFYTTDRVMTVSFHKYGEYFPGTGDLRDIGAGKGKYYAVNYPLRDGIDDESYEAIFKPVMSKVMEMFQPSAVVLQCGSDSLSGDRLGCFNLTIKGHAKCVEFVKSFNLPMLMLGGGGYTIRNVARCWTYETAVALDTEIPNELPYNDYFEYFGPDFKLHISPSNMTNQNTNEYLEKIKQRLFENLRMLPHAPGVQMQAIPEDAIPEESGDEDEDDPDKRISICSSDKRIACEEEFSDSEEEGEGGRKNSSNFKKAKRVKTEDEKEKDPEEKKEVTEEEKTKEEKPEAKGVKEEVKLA

[2] = molecular target: T1, Protein deacetylase HDAC6 (Homo sapiens, UniProt Q9UBN7); test: Inhibition of HDAC6 (unknown origin) using fluorogenic peptide RHKKAc-AMC as substrate by fluorescence-based assay
T1 sequence (Q9UBN7 whole entry): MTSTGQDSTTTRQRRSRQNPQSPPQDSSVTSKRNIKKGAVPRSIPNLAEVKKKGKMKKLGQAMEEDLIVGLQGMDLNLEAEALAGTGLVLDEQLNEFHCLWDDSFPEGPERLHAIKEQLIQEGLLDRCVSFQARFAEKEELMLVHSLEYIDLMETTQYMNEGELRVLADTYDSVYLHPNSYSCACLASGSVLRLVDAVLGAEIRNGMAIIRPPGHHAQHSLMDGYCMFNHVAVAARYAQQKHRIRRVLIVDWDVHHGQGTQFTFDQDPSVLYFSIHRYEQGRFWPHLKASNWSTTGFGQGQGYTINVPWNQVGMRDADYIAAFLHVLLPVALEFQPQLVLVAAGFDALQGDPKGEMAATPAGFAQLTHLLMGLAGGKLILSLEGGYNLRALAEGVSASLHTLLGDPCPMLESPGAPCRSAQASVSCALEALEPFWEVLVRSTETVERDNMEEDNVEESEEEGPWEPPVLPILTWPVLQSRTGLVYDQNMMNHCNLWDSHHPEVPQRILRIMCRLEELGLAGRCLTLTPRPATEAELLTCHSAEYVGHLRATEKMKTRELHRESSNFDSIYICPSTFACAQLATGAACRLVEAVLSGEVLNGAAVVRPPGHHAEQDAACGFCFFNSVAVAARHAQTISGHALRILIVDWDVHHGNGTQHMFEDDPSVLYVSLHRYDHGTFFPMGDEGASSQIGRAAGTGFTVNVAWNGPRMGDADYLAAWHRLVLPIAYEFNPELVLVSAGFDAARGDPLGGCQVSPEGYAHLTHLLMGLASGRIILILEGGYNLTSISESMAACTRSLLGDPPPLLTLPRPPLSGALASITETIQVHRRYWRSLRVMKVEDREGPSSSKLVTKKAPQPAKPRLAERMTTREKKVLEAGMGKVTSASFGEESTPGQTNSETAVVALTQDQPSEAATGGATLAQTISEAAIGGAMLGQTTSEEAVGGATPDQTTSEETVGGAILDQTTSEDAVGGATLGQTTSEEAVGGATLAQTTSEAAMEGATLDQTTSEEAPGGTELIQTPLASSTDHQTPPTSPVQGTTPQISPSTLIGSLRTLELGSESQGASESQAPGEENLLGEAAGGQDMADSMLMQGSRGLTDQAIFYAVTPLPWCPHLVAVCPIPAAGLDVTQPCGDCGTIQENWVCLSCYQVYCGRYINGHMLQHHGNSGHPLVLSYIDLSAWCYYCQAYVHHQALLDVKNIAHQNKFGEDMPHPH

PC-12 [3] = test: Neuroprotective activity in rat PC-12 cells assessed as increase in NGF-mediated neurite outgrowth at 3 uM incubated for 48 hrs by phase contrast microscopic analysis; type: functional
PC-12 [4] = test: Neuroprotective activity in rat PC-12 cells assessed as increase in NGF-mediated neurite outgrowth at 1 to 10 uM incubated for 48 hrs by phase contrast microscopic analysis; type: functional, cell-based; conditions: dose 1-10 µM
PC-12 [5] = test: Neuroprotective activity against H202-induced oxidative damage in rat PC-12 cells assessed as increase in cell viability at 1 to 10 uM; type: functional, cell-based; conditions: dose 1-10 µM
PC-12 [6] = test: Neuroprotective activity against H202-induced oxidative damage in rat PC-12 cells assessed as increase in cell viability at 10 uM; type: functional
Histone deacetylase 3 = Histone deacetylase 3 (Homo sapiens, UniProt O15379); test: Inhibition of HDAC3 (unknown origin) using fluorogenic peptide RHKKAc-AMC as substrate by fluorescence-based assay
Chain of Histone deacetylase 3 (O15379 whole entry): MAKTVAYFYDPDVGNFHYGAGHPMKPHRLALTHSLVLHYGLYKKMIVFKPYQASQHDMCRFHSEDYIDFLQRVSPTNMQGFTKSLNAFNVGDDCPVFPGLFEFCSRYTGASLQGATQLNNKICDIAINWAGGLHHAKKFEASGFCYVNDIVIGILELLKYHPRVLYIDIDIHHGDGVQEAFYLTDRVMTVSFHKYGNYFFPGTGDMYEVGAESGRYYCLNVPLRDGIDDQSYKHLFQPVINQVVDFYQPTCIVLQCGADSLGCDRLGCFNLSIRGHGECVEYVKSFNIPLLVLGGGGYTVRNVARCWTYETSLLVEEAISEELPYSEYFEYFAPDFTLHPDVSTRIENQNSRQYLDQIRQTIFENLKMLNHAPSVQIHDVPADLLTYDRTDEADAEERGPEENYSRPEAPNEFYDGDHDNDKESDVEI

PC-12 [7] = test: Neuroprotective activity in rat PC-12 cells assessed as increase in NGF-mediated neurite outgrowth at 10 uM incubated for 48 hrs by phase contrast microscopic analysis; type: functional
Histone deacetylase 5 = Histone deacetylase 5 (Homo sapiens, UniProt Q9UQL6); test: Inhibition of HDAC5 (unknown origin) using trifluoroacetyl lysine as substrate by fluorescence-based assay
Chain of Histone deacetylase 5 (Q9UQL6 whole entry): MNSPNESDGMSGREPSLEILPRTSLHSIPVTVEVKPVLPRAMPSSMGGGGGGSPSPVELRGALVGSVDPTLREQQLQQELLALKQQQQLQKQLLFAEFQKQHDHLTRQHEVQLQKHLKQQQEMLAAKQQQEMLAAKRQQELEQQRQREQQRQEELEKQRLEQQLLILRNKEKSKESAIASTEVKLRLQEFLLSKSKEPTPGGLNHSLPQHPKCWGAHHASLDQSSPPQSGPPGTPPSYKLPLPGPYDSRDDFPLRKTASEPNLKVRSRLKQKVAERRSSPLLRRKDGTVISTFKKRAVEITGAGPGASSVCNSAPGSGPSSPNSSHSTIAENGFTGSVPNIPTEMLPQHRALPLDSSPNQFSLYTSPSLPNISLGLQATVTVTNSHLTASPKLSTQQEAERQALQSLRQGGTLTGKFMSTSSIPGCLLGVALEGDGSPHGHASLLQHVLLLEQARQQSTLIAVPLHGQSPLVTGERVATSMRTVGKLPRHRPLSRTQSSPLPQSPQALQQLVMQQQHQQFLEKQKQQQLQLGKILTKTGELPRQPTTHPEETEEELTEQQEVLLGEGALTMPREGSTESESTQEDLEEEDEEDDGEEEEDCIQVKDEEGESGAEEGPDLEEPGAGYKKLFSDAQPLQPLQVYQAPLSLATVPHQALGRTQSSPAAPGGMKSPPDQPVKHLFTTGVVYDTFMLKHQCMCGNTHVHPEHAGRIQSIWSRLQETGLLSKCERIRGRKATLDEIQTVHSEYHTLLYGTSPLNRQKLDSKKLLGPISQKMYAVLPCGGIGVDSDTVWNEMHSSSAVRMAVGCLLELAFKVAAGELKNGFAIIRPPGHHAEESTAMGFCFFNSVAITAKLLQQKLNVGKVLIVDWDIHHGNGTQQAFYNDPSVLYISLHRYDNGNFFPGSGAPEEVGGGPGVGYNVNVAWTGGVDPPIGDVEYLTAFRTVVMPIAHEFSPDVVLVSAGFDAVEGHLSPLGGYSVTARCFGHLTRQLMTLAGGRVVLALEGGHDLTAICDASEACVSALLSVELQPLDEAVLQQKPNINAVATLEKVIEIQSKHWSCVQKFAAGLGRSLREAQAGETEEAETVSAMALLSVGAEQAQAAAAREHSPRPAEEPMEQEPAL

Histone deacetylase 2 = Histone deacetylase 2 (Homo sapiens, UniProt Q92769); test: Inhibition of HDAC2 (unknown origin) using fluorogenic peptide RHKKAc-AMC as substrate by fluorescence-based assay
Chain of Histone deacetylase 2 (Q92769 whole entry): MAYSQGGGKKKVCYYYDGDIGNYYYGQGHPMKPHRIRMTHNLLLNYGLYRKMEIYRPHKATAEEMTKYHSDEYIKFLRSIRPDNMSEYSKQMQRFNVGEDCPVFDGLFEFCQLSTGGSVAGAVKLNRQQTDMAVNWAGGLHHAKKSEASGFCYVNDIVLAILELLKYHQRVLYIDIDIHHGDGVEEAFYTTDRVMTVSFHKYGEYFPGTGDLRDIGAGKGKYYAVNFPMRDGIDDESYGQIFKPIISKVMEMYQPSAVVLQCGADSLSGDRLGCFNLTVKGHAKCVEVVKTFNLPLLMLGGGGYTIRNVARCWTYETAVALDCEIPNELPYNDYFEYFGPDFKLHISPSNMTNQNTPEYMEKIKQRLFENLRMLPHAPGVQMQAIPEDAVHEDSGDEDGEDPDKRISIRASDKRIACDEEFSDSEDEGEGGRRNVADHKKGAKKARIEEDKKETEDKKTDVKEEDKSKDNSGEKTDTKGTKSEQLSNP

`O=C(NO)c1ccc(CN2CCN(C(=O)c3c[nH]c4cc(OCc5ccccc5)ccc34)CC2)cc1` was tested, and the Activity (PC-12 [1]) was “Toxic”, the Ratio IC50 (Homo sapiens) was 45 and the IC50 (Histone deacetylase 1) was 1.05 µM. For the same compound, the IC50 [2] was 0.0234 µM, the Activity (PC-12 [3]) was 37.3% and the Activity (PC-12 [4]) was “Dose-Dependent Effect”.

For `O=C(NO)c1ccc(CN2CCN(C(=O)c3c[nH]c4ccc(Cl)cc34)CC2)cc1`, the Ratio IC50 (Homo sapiens) was 55, the IC50 (Histone deacetylase 1) was 1.43 µM and the IC50 [2] was 0.026 µM. For the same compound, the Activity (PC-12 [3]) was 12.3%.

With `Cn1cc(C(=O)N2CCN(Cc3ccc(C(=O)NO)cc3)CC2)c2ccccc21` the Ratio IC50 (Homo sapiens) was 39, the IC50 (Histone deacetylase 1) was 2.18 µM and the IC50 [2] was 0.0552 µM. It also gave an Activity (PC-12 [3]) of 27.5%.

`Cc1cccc2c(C(=O)N3CCN(Cc4ccc(C(=O)NO)cc4)CC3)c[nH]c12` was tested, and the Activity (PC-12 [1]) was 39.1%, the Activity (PC-12 [5]) was “Dose-Dependent Effect” and the Ratio IC50 (Homo sapiens) was 102. The IC50 (Histone deacetylase 1) was 1.39 µM, the Activity (PC-12 [6]) was 78.5% and the IC50 [2] was 0.0136 µM. For the same compound, the IC50 (Histone deacetylase 3) was 1.85 µM, the Activity (PC-12 [3]) was 34.7% and the Activity (PC-12 [4]) was “Dose-Dependent Effect”. It also gave an Activity (PC-12 [7]) of 12.3%, an IC50 (Histone deacetylase 5) of over 50 µM and an IC50 (Histone deacetylase 2) of 2.25 µM.

In the case of `O=C(NO)c1ccc(CN2CC(=O)N(Cc3ccccc3)C(Cc3ccccc3)C2=O)cc1` (centres undefined), the Activity (PC-12 [3]) is reported as 12.3%.

For `O=C(NO)c1ccc(CN2CCN(C(=O)c3c[nH]c4cccc(Cc5ccccc5)c34)CC2)cc1`, the IC50 (Histone deacetylase 1) was over 50 µM, the IC50 [2] was 0.0785 µM and the Activity (PC-12 [3]) was 31.8%. The Activity (PC-12 [4]) was “Dose-Dependent Effect”.

`O=C(NO)c1ccc(CN2CCN(C(=O)c3cc4ccccc4[nH]3)CC2)cc1` showed an IC50 [2] of 0.0885 µM.

Work on `CN1C(=O)CN(Cc2ccc(C(=O)NO)cc2)C(=O)C1Cc1ccccc1` (centres undefined) yielded an Activity (PC-12 [3]) of 12.3%.

For `O=C1CN(Cc2ccc(C(=O)NO)cc2)C(=O)[C@@H](Cc2c[nH]c3ccccc23)N1`, the Activity (PC-12 [3]) was 12.3%.

Compound `C=CCN1C(=O)CN(Cc2ccc(C(=O)NO)cc2)C(=O)C1Cc1ccccc1` (centres undefined) has an Activity (PC-12 [3]) of 12.3%.

`O=C(NO)c1ccc(CN2CCN(C(=O)c3c[nH]c4ccccc34)CC2)cc1` was tested, and the Ratio IC50 (Homo sapiens) was 87, the IC50 (Histone deacetylase 1) was 1.26 µM and the IC50 [2] was 0.0144 µM. It also gave an Activity (PC-12 [3]) of 12.3%.

For `O=C(NO)c1ccc(CN2CCN(C(=O)c3c[nH]c4cc(F)ccc34)CC2)cc1`, the Ratio IC50 (Homo sapiens) was 85, the IC50 (Histone deacetylase 1) was 1.19 µM and the IC50 [2] was 0.014 µM. It also gave an Activity (PC-12 [3]) of 12.3%.

For `CN1CCc2c(c3ccccc3n2Cc2ccc(C(=O)NO)cc2)C1`, the Activity (PC-12 [5]) was “Dose-Dependent Effect”.
